Laboratory results reported in paper PMC4024383 (European journal of medicinal chemistry, 2014).

Experiments:
[1] = Human cell growth inhibition assay; assay type: cell-based; conditions: HepG2 cells (liver)
[2] = Human cell growth inhibition assay; assay type: cell-based; conditions: CRL-8155 cells (lymphocytic)
[3] = molecular target: T1, Abl tyrosine kinase (Homo sapiens, UniProt P00519); assay: Abl radioactive kinase assay; assay type: biochemical
T1 sequence (P00519 229-512 limits assumed): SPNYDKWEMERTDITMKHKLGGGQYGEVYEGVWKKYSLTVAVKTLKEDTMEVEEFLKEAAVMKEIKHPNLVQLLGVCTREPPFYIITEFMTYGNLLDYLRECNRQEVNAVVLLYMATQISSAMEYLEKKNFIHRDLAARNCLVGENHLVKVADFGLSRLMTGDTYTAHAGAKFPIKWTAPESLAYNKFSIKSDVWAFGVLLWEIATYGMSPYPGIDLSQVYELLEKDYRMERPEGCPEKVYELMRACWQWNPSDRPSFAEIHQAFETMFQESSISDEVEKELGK

[4] = system: P. falciparum gametocyte exflagellation; assay: P. falciparum exflagellation assay; assay type: cell-based; conditions: Plasmodium falciparum, read-out: P. falciparum exflagellation inhibition EC50
[5] = molecular target: recombinant PfCDPK4 (Plasmodium falciparum, UniProt Q8IBS5); assay: PfCDPK4 luminescence-based; assay type: biochemical; conditions: for fold more potent against PfCDPK4 than PfCDPK1: ratio of IC50s
Chain of recombinant PfCDPK4 (Q8IBS5 whole entry): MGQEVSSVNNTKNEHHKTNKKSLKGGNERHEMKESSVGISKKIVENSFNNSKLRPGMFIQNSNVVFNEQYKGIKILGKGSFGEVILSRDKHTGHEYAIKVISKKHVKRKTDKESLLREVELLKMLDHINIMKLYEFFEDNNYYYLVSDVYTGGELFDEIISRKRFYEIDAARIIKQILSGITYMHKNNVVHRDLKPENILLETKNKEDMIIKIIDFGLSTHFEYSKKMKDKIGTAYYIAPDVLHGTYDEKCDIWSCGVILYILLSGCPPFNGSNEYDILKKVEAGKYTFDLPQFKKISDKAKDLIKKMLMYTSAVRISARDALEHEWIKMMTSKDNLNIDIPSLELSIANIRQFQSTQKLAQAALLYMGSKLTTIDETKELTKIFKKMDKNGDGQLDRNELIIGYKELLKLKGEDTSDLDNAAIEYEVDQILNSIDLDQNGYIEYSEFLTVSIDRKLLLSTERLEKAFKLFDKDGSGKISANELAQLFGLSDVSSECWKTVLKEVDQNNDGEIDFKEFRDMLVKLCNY

[6] = system: Src kinase; assay: Src radioactive kinase assay; conditions: ratio of IC50s
[7] = system: PfCDPK1; assay: PfCDPK1 enzymatic assay; assay type: biochemical, Plasmodium falciparum; conditions: ratio of IC50s

SMILES	GI50 [1] [nM]	GI50 [2] [nM]	EC50 [4] [nM]	IC50 [5] [nM]	also measured
CCOc1ccc2cc(-c3nn(CC(C)(C)CO)c4ncnc(N)c34)ccc2n1 [30u, 3-(4-amino-3-(2-ethoxyquinolin-6-yl)-1H-pyrazolo[3,4-d]pyrimidin-1-yl)-2,2-dimethylpropan-1-ol]	> 30000	> 30000	< 40	4	IC50 [3]: > 10000 nM
CCOc1ccc2cc(-c3nn(CC4CNC4)c4ncnc(N)c34)ccc2c1 [17g, 1-(azetidin-3-ylmethyl)-3-(6-ethoxynaphthalen-2-yl)-1H-pyrazolo[3,4-d]pyrimidin-4-amine]	–	–	–	–	selectivity for PfCDPK4 over Src [6]: greater than 1300 fold
CCOc1ccc2cc(-c3nn(C(C)C)c4ncnc(N)c34)cc(C)c2n1 [31a, 3-(2-ethoxy-8-methylquinolin-6-yl)-1-isopropyl-1H-pyrazolo[3,4-d]pyrimidin-4-amine]	–	–	–	–	fold more potent against PfCDPK4 than PfCDPK1 [5]: > 5 fold
CC(C)n1nc(-c2ccc3nc(OCc4ccccc4)ccc3c2)c2c(N)ncnc21 [33a, 3-(2-(benzyloxy)quinolin-6-yl)-1-isopropyl-1H-pyrazolo[3,4-d]pyrimidin-4-amine]	–	–	–	–	fold more potent against PfCDPK1 than PfCDPK4 [7]: > 3 fold
Nc1ncnc2c1c(-c1ccc3cc(OC4CC4)ccc3c1)nn2CC1CCNCC1 [37j, 3-(6-cyclopropoxynaphthalen-2-yl)-1-(piperidin-4-ylmethyl)-1H-pyrazolo[3,4-d]pyrimidin-4-amine]	> 30000	> 30000	< 40	2	–
CCOc1ccc2cc(-c3nn(CC(C)C)c4ncnc(N)c34)ccc2c1 [17q, 3-(6-ethoxynaphthalen-2-yl)-1-isobutyl-1H-pyrazolo[3,4-d]pyrimidin-4-amine]	> 30000	> 30000	< 40	14	IC50 [3]: 2700 nM; fold more potent against PfCDPK4 than i-Pr analog 17a ([5]; relative to 17a): more than 30 fold
CCOc1ccc2cc(-c3nn(C(C)C)c4ncnc(N)c34)ccc2n1 [30a, 3-(2-ethoxyquinolin-6-yl)-1-isopropyl-1H-pyrazolo[3,4-d]pyrimidin-4-amine]	–	–	–	< 20	fold more potent against PfCDPK4 than PfCDPK1 [5]: > 5 fold
